For one data set, the system named is Vero. As to conditions: chlorocebus sabaeus.
Another data set deals with CCRF-CEM. As to conditions: human.
Another data set relates to PBMC. The settings on record: human.
Data set [1] is described as follows: in vitro. As to conditions: human, HuH7 cells.
A further data set relates to Hepatitis C virus. In words: microbe, parasite or virus in culture. As to conditions: genotype 1b, Huh-7.
Data set [2] is described as follows: in vitro. The settings on record: human, CEM cells.
A short description of data set [3]: in vitro. The settings on record: human, pbmc.

These results are taken from ChEMBL document CHEMBL2346553, “Synthesis and evaluation of non-dimeric HCV NS5A inhibitors” (Bioorg Med Chem Lett, 2013).

Molecules are shown by their SMILES. Some results are limits rather than exact numbers.

As usually defined, the EC50 is the concentration giving half of the maximal effect. By EC90 is commonly meant the point of the concentration-response curve where the effect stands at 90%.

For the molecule `COC(=O)N[C@H](C(=O)N1CCC[C@H]1c1ncc(-c2ccc(-c3ccc(C#N)cc3)cc2)[nH]1)C(C)C`, the CC50 in the data set with Vero was 33 µM; in the data set with CCRF-CEM it was 98 µM; in the data set on PBMC, > 100 µM; in “in vitro [1]”, > 1 µM. The EC50 in the data set on Hepatitis C virus was > 100 nM.
Take `COC(=O)N[C@H](C(=O)N1CCC[C@H]1c1ncc(-c2ccc(C(F)(F)F)cc2)[nH]1)C(C)C`: the CC50 with Vero was 26 µM; in the data set “in vitro [1]”, > 1 µM; in “in vitro [2]”, > 100 µM; in “in vitro [3]”, > 100 µM. For the same molecule, the EC50 in the data set on Hepatitis C virus was > 100 nM.
Take `COC(=O)N[C@H](C(=O)N1CCC[C@H]1c1ncc(-c2ccc(C#N)cc2)[nH]1)C(C)C`: the CC50 with Vero was 33 µM; in the data set with CCRF-CEM, 98 µM; in the data set with PBMC, > 100 µM; in “in vitro [1]” it was > 1 µM. In the data set with Hepatitis C virus, the EC50 is > 100 nM.
As for `COC(=O)N[C@H](C(=O)N1CCC[C@H]1c1nc(Cl)c(-c2ccc(N=[N+]=[N-])cc2)[nH]1)C(C)C`, the CC50 in the data set with Vero was 12 µM; in the data set with PBMC it was 94 µM; in “in vitro [1]”, > 1 µM; in “in vitro [2]” it was > 100 µM. For the same molecule, a half-maximal effect with Hepatitis C virus (EC50) was put at 4 nM. The 90% effect level with Hepatitis C virus (EC90) was put at 14 nM.
For `C=CC[C@H](NC(C)=O)C(=O)N1CCC[C@H]1c1ncc(-c2ccc(-c3ccccc3)cc2)[nH]1`, the CC50 in the data set with Vero was 21 µM; in the data set on CCRF-CEM, 73 µM; in the data set with PBMC, 100 µM; in “in vitro [1]”, > 1 µM. The EC50 in the data set on Hepatitis C virus was > 1000 nM.
With `COC(=O)N[C@H](C(=O)N1CCC[C@H]1c1ncc(-c2ccc([N+](=O)[O-])cc2)[nH]1)C(C)C`, the CC50 in the data set with Vero was > 100 µM; in the data set with CCRF-CEM, > 100 µM; in the data set with PBMC it was > 100 µM; in the data set “in vitro [1]”, > 1 µM. Moreover, in the data set on Hepatitis C virus, the EC50 is > 100 nM.
Regarding `COC(=O)N[C@H](C(=O)N1CCC[C@H]1c1ncc(-c2ccc(N)cc2)[nH]1)C(C)C`, the CC50 in the data set on Vero is > 100 µM; with CCRF-CEM it was > 100 µM; with PBMC, > 100 µM; in “in vitro [1]”, > 1 µM. The molecule further returned an EC50 in the data set on Hepatitis C virus of 200 nM. The molecule also yielded a concentration for an effect of 90% (EC90) with Hepatitis C virus of 300 nM.
Consider `COC(=O)N[C@H](C(=O)N1CCC[C@H]1c1ncc(-c2ccc(OC(F)(F)F)cc2)[nH]1)C(C)C`, for which the CC50 with Vero is 30 µM; in the data set on PBMC, 49 µM; in the data set “in vitro [1]”, > 1 µM; in the data set “in vitro [2]”, > 100 µM. The EC50 in the data set on Hepatitis C virus is > 100 nM.
On to `COC(=O)N[C@H](C(=O)N1CCC[C@H]1c1ncc(-c2ccccc2)[nH]1)C(C)C`, for which the CC50 in the data set on Vero was > 100 µM; in the data set on CCRF-CEM, > 100 µM; in the data set on PBMC it was > 100 µM; in the data set “in vitro [1]”, > 1 µM. In addition, the EC50 in the data set with Hepatitis C virus was > 1000 nM.
On to `COC(=O)N[C@H](C(=O)N1CCC[C@H]1c1nc(Cl)c(-c2ccc(-c3ccc(C(F)(F)F)cc3)cc2)[nH]1)C(C)C`, for which the CC50 in the data set with Vero is 10 µM; in the data set on CCRF-CEM, 10 µM; in the data set on PBMC, 11 µM; in “in vitro [1]”, > 1 µM. The EC50 with Hepatitis C virus was > 100 nM.
With `COC(=O)N[C@@H](CC(C)C)C(=O)N1CCC[C@H]1c1ncc(-c2ccc(-c3ccccc3)cc2)[nH]1`, the CC50 in the data set with Vero is 25 µM; with CCRF-CEM, 61 µM; in the data set with PBMC it was 16 µM; in “in vitro [1]”, > 1 µM. For the same molecule, the concentration for a half-maximal effect (EC50) with Hepatitis C virus is > 100 nM. Besides, in the data set with Hepatitis C virus, the EC90 is > 1000 nM.
Consider `COC(=O)N[C@H](C(=O)N1CCC[C@H]1c1ncc(-c2ccc(-c3ccc(OC)cc3)cc2)[nH]1)C(C)C`, for which the CC50 with Vero was 13 µM; in the data set on CCRF-CEM, 30 µM; in the data set on PBMC it was 85 µM; in the data set “in vitro [1]” it was > 1 µM. The EC50 in the data set on Hepatitis C virus was > 100 nM.
Consider `COC(=O)N[C@H](C(=O)N1CCC[C@H]1c1ncc(-c2ccc(Br)cc2)[nH]1)C(C)C`, for which the CC50 in the data set with Vero is 48 µM; with CCRF-CEM, 50 µM; in the data set with PBMC, > 100 µM; in “in vitro [1]” it was > 1 µM. Moreover, in the data set on Hepatitis C virus, the EC50 was > 100 nM.
As to `COC(=O)N[C@H](C(=O)N1CCC[C@H]1c1ncc(-c2ccc(-c3ccc(S(C)(=O)=O)cc3)cc2)[nH]1)C(C)C`, the CC50 in the data set with Vero is 6 µM; with CCRF-CEM, 54 µM; in the data set on PBMC, > 100 µM; in “in vitro [1]”, > 1 µM. In addition, in the data set on Hepatitis C virus, the half-maximal effective concentration (EC50) is > 100 nM.
For `COC(=O)N[C@H](C(=O)N1CCC[C@H]1c1ncc(-c2ccc(-c3ccc(-c4cnc([C@@H]5CCCN5C(=O)[C@@H](NC(=O)OC)C(C)C)[nH]4)cc3)cc2)[nH]1)C(C)C`, in the data set with Hepatitis C virus, the EC50 was 0.01 nM and the 90% effect level (EC90) was put at 0.03 nM.
For `COC(=O)N[C@H](C(=O)N1CCC[C@H]1c1ncc(-c2ccc(-c3cccc(O)c3)cc2)[nH]1)C(C)C`, the CC50 is 50 µM with Vero, > 1 µM in “in vitro [1]”, > 100 µM in the data set “in vitro [2]” and > 100 µM in “in vitro [3]”. The concentration for a half-maximal effect (EC50) in the data set with Hepatitis C virus is > 1000 nM.
As to `COC(=O)N[C@H](C(=O)N1CCC[C@H]1c1ncc(-c2ccc(-c3ccc(N=[N+]=[N-])cc3)cc2)[nH]1)C(C)C`, the CC50 with Vero is 11 µM; in the data set on CCRF-CEM it was 11 µM; in the data set on PBMC it was 37 µM; in the data set “in vitro [1]”, > 1 µM. Also, the EC50 with Hepatitis C virus was > 100 nM.
Regarding `COC(=O)N[C@H](C(=O)N1CCC[C@H]1c1ncc(-c2ccc(Cl)cc2Cl)[nH]1)C(C)C`, the CC50 in the data set on Vero is 15 µM; with PBMC it was 56 µM; in the data set “in vitro [1]”, > 1 µM; in the data set “in vitro [2]”, > 100 µM. In the data set on Hepatitis C virus, the EC50 worked out at 1000 nM.
Regarding `COC(=O)N[C@H](C(=O)N1CCC[C@H]1c1ncc(-c2ccc(-c3ccc(C(=O)OC)cc3)cc2)[nH]1)C(C)C`, the CC50 in the data set with Vero was 17 µM; with CCRF-CEM it was 61 µM; with PBMC, 14 µM; in “in vitro [1]”, > 1 µM. The EC50 in the data set on Hepatitis C virus was > 100 nM.
As to `COC(=O)N[C@H](C(=O)N1CCC[C@H]1c1ncc(-c2ccc(-c3ccccc3)cc2)[nH]1)C(C)C`, the CC50 in the data set with Vero was 18 µM; in the data set on CCRF-CEM, 70 µM; in the data set with PBMC, 14 µM; in the data set “in vitro [1]”, > 1 µM. Also, a half-maximal effect with Hepatitis C virus (EC50) was put at 300 nM. In addition, it took 900 nM to reach the 90% level with Hepatitis C virus (EC90).
Regarding `COC(=O)N[C@H](C(=O)N1CCC[C@H]1c1ncc(-c2ccc(C)cc2)[nH]1)C(C)C`, the CC50 with Vero was > 100 µM; in the data set on CCRF-CEM, > 100 µM; with PBMC it was > 100 µM; in “in vitro [1]”, > 1 µM. In addition, the EC50 in the data set on Hepatitis C virus was > 1000 nM.
With `COC(=O)N[C@H](C(=O)N1CCC[C@H]1c1ncc(-c2ccc(S(=O)(=O)c3ccccc3)cc2)[nH]1)C(C)C`, the CC50 in the data set with Vero is > 100 µM; in the data set on CCRF-CEM, > 100 µM; in the data set on PBMC, > 100 µM; in the data set “in vitro [1]”, > 1 µM. Also, in the data set on Hepatitis C virus, the EC50 is > 100 nM.
Take `COC(=O)N[C@H](C(=O)N1CCC[C@H]1c1ncc(-c2ccc(NS(C)(=O)=O)cc2)[nH]1)C(C)C`: the CC50 in the data set with Vero is 13 µM; in “in vitro [1]”, > 1 µM; in the data set “in vitro [2]” it was > 100 µM; in “in vitro [3]”, > 100 µM. The concentration giving a half-maximal response (EC50) with Hepatitis C virus is > 100 nM.
For the molecule `COC(=O)N[C@H](C(=O)N1CCC[C@H]1c1ncc(-c2ccc(-c3ccc(C(N)=O)cc3)cc2)[nH]1)C(C)C`, the CC50 is > 100 µM in the data set with Vero, > 100 µM in the data set with CCRF-CEM, > 100 µM with PBMC and > 1 µM in the data set “in vitro [1]”. Also, a half-maximal effect with Hepatitis C virus (EC50) was put at 21 nM. Further, the EC90 with Hepatitis C virus was found to be 76 nM.
In the case of `COC(=O)N[C@H](C(=O)N1CCC[C@H]1c1nc(I)c(-c2ccc(N=[N+]=[N-])cc2)[nH]1)C(C)C`, the CC50 is 14.2 µM in the data set on Vero, 64.2 µM with PBMC, > 1 µM in “in vitro [1]” and > 100 µM in “in vitro [2]”. The EC50 in the data set with Hepatitis C virus stood at 2 nM. Besides, the EC90 in the data set with Hepatitis C virus came out at 3 nM.
In the case of `C[C@H](NC(=O)OC(C)(C)C)C(=O)N1CCC[C@H]1c1ncc(-c2ccc(-c3ccccc3)cc2)[nH]1`, the CC50 in the data set on Vero is 13 µM; in the data set with CCRF-CEM, 11 µM; in the data set with PBMC, 16 µM; in “in vitro [1]”, > 1 µM. Moreover, the EC50 with Hepatitis C virus was > 1000 nM.
Taken in the same sequence, the figures for `COC(=O)Nc1ccc(-c2cnc([C@@H]3CCCN3C(=O)[C@@H](NC(=O)OC)C(C)C)[nH]2)cc1` were > 100 µM, > 100 µM, > 100 µM, > 1 µM and > 100 nM.
`COC(=O)N[C@H](C(=O)N1CCC[C@H]1c1ncc(-c2ccc(OC)cc2)[nH]1)C(C)C`: the CC50 was > 100 µM in the data set with Vero, > 100 µM in the data set on CCRF-CEM, > 100 µM in the data set on PBMC and > 1 µM in the data set “in vitro [1]”. The EC50 with Hepatitis C virus is > 1000 nM.
For `COC(=O)N[C@H](C(=O)N1CCC[C@H]1c1ncc(-c2ccc(-c3ccc(C)cc3)cc2)[nH]1)C(C)C`, the CC50 with Vero is 14 µM; in the data set on CCRF-CEM, 16 µM; with PBMC, 90 µM; in the data set “in vitro [1]”, > 1 µM. Besides, the EC50 in the data set on Hepatitis C virus was > 100 nM.
